Assay results: paper PMC10705938, “Discovery of Anti-Coronavirus Cinnamoyl Triterpenoids Isolated from Hippophae rhamnoides during a Screening of Halophytes from the North Sea and Channel Coasts in Northern France” (International Journal of Molecular Sciences, 2023)
In brackets after ≈: the same amount, converted by molar mass. Like-named read-outs stand apart in the source and are kept apart here.

Key:
Candida albicans = test system: Candida albicans; parameters: method as in PMID 11199141; details: cited from earlier work
Staphylococcus capitis = test system: Staphylococcus capitis; parameters: method as in PMID 11199141; details: cited from earlier work
hepatitis C virus = test system: hepatitis C virus; parameters: method as in PMID 30842319; details: cited from earlier work
SARS-CoV-2 Mpro enzyme = test system: SARS-CoV-2 Mpro enzyme; parameters: method as in PMID 35066300; details: cited from earlier work
HCoV-229E [1] = assay: HCoV-229E-Luc infection assay (luciferase) in Huh-7 cells; format: cell-based; details: Human coronavirus 229E, purified compounds
HCoV-229E [2] = assay: HCoV-229E-Luc infection assay (luciferase) in Huh-7/TMPRSS2 cells; format: cell-based; details: Human coronavirus 229E, purified compounds
in vitro = details: human, Huh-7 cells
Protocol: The cytotoxicity of 25 crude methanolic extracts was tested on Huh-7 cells using an [3-(4,5-dimethylthiazol-2-yl)-5-(3-carboxymethoxyphenyl)-2-(4-sulfophenyl)-2H-tetrazolium]- based (MTS) viability assay. Huh-7 cells were treated with two different concentrations of the crude methanolic extracts (25 and 100 μg/mL) for 24 h. Non-treated control cells were incubated with 0.1% dimethyl sulfoxide (DMSO) in the media.
Huh-7 cells and Vero-81 cells were seeded in 96-well plates and incubated with 100 μL of culture medium containing increasing concentrations of our compounds for 24 h. An MTS based viability assay (CellTiter 96 aqueous nonradioactive cell proliferation assay, Promega, Madison WI, USA) was performed, as recommended by the manufacturer. The absorbance of formazan at 490 nm was detected using ELx808 plate reader (BioTek Instruments Inc., Winooski, VT, USA). Each measurement was performed in triplicate.

SARS-CoV-2 = assay: microbe, parasite or virus in culture; format: cell-based; details: read-out: inhibition of SARS-CoV-2 (N protein levels)
[3] = test system: SARS-CoV-2 spike pseudotyped virus; details: in vitro; cited from earlier work

Compound	IC50 (HCoV-229E [1]) [µM]	IC50 (HCoV-229E [2]) [µM]	CC50 at 24 h (in vitro) [µM]	further results
CC1(C)CC[C@]2(C(=O)O)CC[C@]3(C)C(=CC[C@@H]4[C@@]5(C)C[C@@H](O)[C@H](OC(=O)/C=C/c6ccc(O)cc6)C(C)(C)[C@@H]5CC[C@]43C)[C@@H]2C1 (relative stereo) [3-β -O-(trans-p-coumaroyl)maslinic acid]	–	–	–	minimum inhibitory concentration (Candida albicans): 12.5 µg/mL (≈ 20.2 µM); minimum inhibitory concentration (Staphylococcus capitis): 12.5 µg/mL (≈ 20.2 µM)
C=Cc1c(C)c(O)cc2ccc3c(C)c(O)ccc3c12 [dehydrojuncusol]	–	–	–	inhibition of hepatitis C virus replication (hepatitis C virus): inhibitor of hepatitis C virus replication
C[C@H]1[C@H](C)CC[C@]2(C(=O)O)CC[C@]3(C)C(=CC[C@@H]4[C@@]5(C)CC[C@H](O)C(C)(C)[C@@H]5CC[C@]43C)[C@H]12 [UA, ursolic acid]	–	–	–	inhibition of SARS-CoV-2 Mpro enzyme activity (SARS-CoV-2 Mpro enzyme): successfully inhibited its activity
C[C@H]1[C@H](C)CC[C@]2(C(=O)O)CC[C@]3(C)C(=CC[C@@H]4[C@@]5(C)C[C@@H](OC(=O)/C=C/c6ccc(O)cc6)[C@H](O)C(C)(C)[C@@H]5CC[C@]43C)[C@H]12 [F2-2, 3β-hydroxy-2α-trans-p-coumaryloxy-urs-12-en-28-oic acid]	12	11.4	44.4	–
CC1(C)CC[C@]2(C(=O)O)CC[C@]3(C)C(=CC[C@@H]4[C@@]5(C)CC[C@H](OC(=O)/C=C/c6ccc(O)cc6)C(C)(C)[C@@H]5CC[C@]43C)[C@@H]2C1 [F7-1, 3-O-trans-p-coumaroyl-oleanolic acid]	11.4	10.7	39.3	inhibition at 50 µM (SARS-CoV-2; Severe acute respiratory syndrome coronavirus 2, 16 h): 55.5%
COc1cc(-c2oc3cc(O)cc(O)c3c(=O)c2O)ccc1O [isorhamnetin]	–	–	–	antiviral activity against SARS-CoV-2 spike pseudotyped virus [3]: displayed antiviral activity
CC1(C)CC[C@]2(C(=O)O)CC[C@]3(C)C(=CC[C@@H]4[C@@]5(C)C[C@@H](OC(=O)/C=C/c6ccc(O)cc6)[C@H](O)C(C)(C)[C@@H]5CC[C@]43C)[C@@H]2C1 [F2-1, 2-O-trans-p-coumaroyl-maslinic acid]	8.6	9.1	39.9	–
C[C@H]1[C@H](C)CC[C@]2(C(=O)O)CC[C@]3(C)C(=CC[C@@H]4[C@@]5(C)C[C@@H](OC(=O)/C=C\c6ccc(O)cc6)[C@H](O)C(C)(C)[C@@H]5CC[C@]43C)[C@H]12 [F2-3, 3β-hydroxy-2α-cis-p-coumaryloxy-urs-12-en-28-oic acid]	14.5	14.1	52.1	–
CC1(C)CC[C@]2(C(=O)O)CC[C@]3(C)C(=CC[C@@H]4[C@@]5(C)CC[C@H](OC(=O)/C=C/c6ccc(O)c(O)c6)C(C)(C)[C@@H]5CC[C@]43C)[C@@H]2C1 [F4-2, 3-O-trans-caffeoyl-oleanolic acid]	11.6	11.5	81.4	inhibition at 50 µM (SARS-CoV-2; Severe acute respiratory syndrome coronavirus 2, 50 µM, Vero-81, 16 h, Western blot): 54%
